Data published in patent US11881286B2, “CD8+ t cell based immunosuppressive tumor microenvironment detection method” (GENENTECH, INC., priority 2019, dated 2024).

Key:
OAW42 = test: Surface MHC-I (HLA-ABC) expression by flow cytometry, OAW42; type: cell-based, human; details: 96 h
Protocol: (§1) SK-OV-3 and OVCA-420 (MHC-I^high), and OAW42 and PA-1 (MHC-I^low) ovarian cancer lines were cultured in complete culture media (RPMI-1640+10% FBS). The cells were plated at 12,500-100,000 cells/well in 6-well tissue culture plate and complete culture media. After 24 hours, the cells were starved overnight in DMEM high glucose medium without FBS. Next, the starving media was replaced with culture media only (DMEM+2% FBS), 10 ng/mL rhTGFβ1 (Cat #PHG9204, Thermo Fisher, CA), 10 ng/mL rhTGFβ1+10 μM Galunisertib (Cat #S2230, SelleckChem, TX) or 5 ng/mL recombinant IFNγ (Cat #554617, BD Biosciences, CA) for 96 h at 37° C. Cells were then stained and analysed by flow cytometry. The “percentage of untreated” was calculated using this formula: [Geo Mean Fluorescence Intensity (IFNγ-treated cells)/Geo Mean Fluorescence Intensity (untreated cells)]×100. […] Media was half-replenished with fresh 5-Aza 48 hours after treatment to keep concentration consistent. Before staining, Fc receptors were blocked for 10 min at room temperature using FcR blocking reagent human (Cat #130-059-901, Miltenyi Biotec, CA). Cells were stained during the blocking step with the LIVE/DEAD™ Fixable Near-IR Dead Cell (Cat #L10119, Invitrogen, CA). […]

PA-1 = test: Surface MHC-I (HLA-ABC) expression by flow cytometry, PA-1; type: cell-based, human; details: 96 h
Protocol: as §1

OVCA-420 = test: Surface MHC-I (HLA-ABC) expression by flow cytometry, OVCA-420; type: cell-based, human
Protocol: SK-OV-3 and OVCA-420 (MHC-I^high), and OAW42 and PA-1 (MHC-I^low) ovarian cancer lines were cultured in complete culture media (RPMI-1640+10% FBS). The cells were plated at 12,500-100,000 cells/well in 6-well tissue culture plate and complete culture media. After 24 hours, the cells were starved overnight in DMEM high glucose medium without FBS. Next, the starving media was replaced with culture media only (DMEM+2% FBS), 10 ng/mL rhTGFβ1 (Cat #PHG9204, Thermo Fisher, CA), 10 ng/mL rhTGFβ1+10 μM Galunisertib (Cat #S2230, SelleckChem, TX) or 5 ng/mL recombinant IFNγ (Cat #554617, BD Biosciences, CA) for 96 h at 37° C. Cells were then stained and analysed by flow cytometry. The “percentage of untreated” was calculated using this formula: [Geo Mean Fluorescence Intensity (IFNγ-treated cells)/Geo Mean Fluorescence Intensity (untreated cells)]×100. In order to see if MHC-I expression can be regulated by methylation, two MHC-I^low lines OAW42 and PA-1 were plated at 250,000-500,000 cells/dish in 10-cm dish and serum starved as described above for TGFβ1 treatment. 10 μM and 1 μM 5-Aza-2′-deoxycytidine (5-Aza, Cat #A2385, Sigma-Aldrich) demethylating agent in culture media was used to treat OAW42 and PA-1, respectively, for 96 h prior to FACS analysis. Media was half-replenished with fresh 5-Aza 48 hours after treatment to keep concentration consistent.
Before staining, Fc receptors were blocked for 10 min at room temperature using FcR blocking reagent human (Cat #130-059-901, Miltenyi Biotec, CA). Cells were stained during the blocking step with the LIVE/DEAD™ Fixable Near-IR Dead Cell (Cat #L10119, Invitrogen, CA). Then, cells were incubated at room temperature for 15 min with anti-human HLA-ABC-PE (Cat #560168, BD Biosciences, CA) or isotype control mouse IgG1κ-PE (Cat #556650, BD Biosciences) antibodies, washed and samples were acquired on BD LSRFortessa™ flow cytometer.

SMAD2/3 = test: p-SMAD2/3 Western blot assay in PHBF fibroblasts; type: cell-based, human; details: 30 min
Protocol: PHBF cells were plated at 100,000 cells/well in a 24-well cell culture plate overnight, serum starved for 24 h and then cultured in serum-free DMEM with indicated concentration of […] with or without Galunisertib for 30 min. Cells were lysed in protein lysis buffer containing T-PER tissue protein extraction reagent (ThermoFisher, #78510), cOmplete™ Protease Inhibitor Cocktail (Sigma-Aldrich, #11697498001) and PhosSTOP™ phosphatase inhibitor cocktails (Sigma-Aldrich, #4906845001). Total protein was diluted and normalized to 0.5 μg/μL with 4×LDS Sample Buffer (ThermoFisher, #84788). 10 ug of total protein was loaded into each well of a NuPAGE 4-12% Bis-Tris Midi Gel (Invitrogen), followed by protein transfer from gel to the membrane using Trans-Blot Turbo (Bio-Rad). […] Briefly, the membrane was blocked for 1 h, incubated with Phospho-Smad2 antibodies overnight at 4° C. ([…], 1:200, Cell Signaling #3108, clone138D4), washed and incubated with secondary antibodies goat anti-rabbit. To analyse the total Smad2/3, the membrane was stripped and then incubated with Smad2/3 antibodies (1:1000, Cell Signaling #8685).

SK-OV-3 = test: Surface MHC-I (HLA-ABC) expression by flow cytometry, SK-OV-3; type: cell-based, human; details: 96 h
Protocol: SK-OV-3 and OVCA-420 (MHC-I^high), and OAW42 and PA-1 (MHC-I^low) ovarian cancer lines were cultured in complete culture media (RPMI-1640+10% FBS). The cells were plated at 12,500-100,000 cells/well in 6-well tissue culture plate and complete culture media. After 24 hours, the cells were starved overnight in DMEM high glucose medium without FBS. Next, the starving media was replaced with culture media only (DMEM+2% FBS), 10 ng/mL rhTGFβ1 (Cat #PHG9204, Thermo Fisher, CA), 10 ng/mL rhTGFβ1+10 μM Galunisertib (Cat #S2230, SelleckChem, TX) or 5 ng/mL recombinant IFNγ (Cat #554617, BD Biosciences, CA) for 96 h at 37° C. Cells were then stained and analysed by flow cytometry. The “percentage of untreated” was calculated using this formula: [Geo Mean Fluorescence Intensity (IFNγ-treated cells)/Geo Mean Fluorescence Intensity (untreated cells)]×100. In order to see if MHC-I expression can be regulated by methylation, two MHC-I^low lines OAW42 and PA-1 were plated at 250,000-500,000 cells/dish in 10-cm dish and serum starved as described above for TGFβ1 treatment. 10 μM and 1 μM 5-Aza-2′-deoxycytidine (5-Aza, Cat #A2385, Sigma-Aldrich) demethylating agent in culture media was used to treat OAW42 and PA-1, respectively, for 96 h prior to FACS analysis. Media was half-replenished with fresh 5-Aza 48 hours after treatment to keep concentration consistent. […]

[1] = tested on: primary human fibroblasts; test: Proliferation assay (CellTiter-Glo) of primary human fibroblasts; type: cell-based; details: ovary, bladder and colon fibroblasts, 72 h
Protocol: (§2) The primary normal fibroblast PHBF (Bladder), CCD-18Co (Colon) and HOF (Ovary) were serum-starved overnight before treatment with media only (untreated), 10 ng/mL rhTGFβ1 or 10 ng/mL rhTGFβ1+10 μM Galunisertib for 24 hours and total RNA was extracted for RNA-seq analysis. To detect IL-6 protein in the supernatant, cells were treated for 48 hours with rhTGFβ1. After the 48 h, the supernatant was collected and analysed by Luminex using the Millipore kit. For the proliferation assay, PHBF, CCD-18Co, HOF were plated at 3,000 cells/well in a 96-well culture flat bottom plate for immunofluorescent assays (Corning, #3917) overnight. Cells were then cultured for 72 hours in DMEM high glucose+1% FBS with indicated concentration of TGFβ1 with or without Galunisertib. Next, CellTiter-Glo® reagents (Promega, G7570) were added to each well and luminescence signal was read with a microplate reader.

IL-6 = IL-6 protein in fibroblast supernatant by Luminex; type: cell-based, human; details: rhTGFβ1, 48 h
Protocol: as §2

[2] = tested on: primary human fibroblasts; test: RNA-seq transcriptional response of primary human fibroblasts; type: cell-based; details: 10 ng/mL rhTGFβ1, 24 h
Protocol: as §2

Nc1ncn([C@H]2C[C@H](O)[C@@H](CO)O2)c(=O)n1 [5-aza-2′-deoxycytidine]
expression of MHC class I protein at the tumor cell surface (OAW42; OAW42, 10 μM 5-Aza, vs DMSO): significantly induce | expression of MHC class I protein at the tumor cell surface (PA-1; PA-1, 1 μM 5-Aza, vs DMSO): significantly induce

Cc1cccc(-c2nn3c(c2-c2ccnc4ccc(C(N)=O)cc24)CCC3)n1 [Galunisertib]
MHC class I expression in the presence of Galunisertib (OVCA-420; OVCA-420, 10 ng/mL rhTGFβ1+10 μM Galunisertib, 96 h): restored to the untreated level | TGFβ pathway (SMAD2/3 phosphorylation) with Galunisertib treatment (SMAD2/3; TGFβ1 with Galunisertib): pathway inhibition | MHC class I expression in the presence of Galunisertib (SK-OV-3; SK-OV-3, 10 ng/mL rhTGFβ1+10 μM Galunisertib): restored to the untreated level

TGFβ1: recombinant human TGFβ1 (rhTGFβ1, Cat #PHG9204, Thermo Fisher)
proliferation of primary human fibroblasts [1]: promoted proliferation | decrease of surface expression of MHC-I compared to the untreated cells (OVCA-420; OVCA-420, 10 ng/mL rhTGFβ1, 96 h, flow cytometry): 40.45±14.2% | IL-6 protein secretion level in the supernatant (IL-6): dramatically increased | expression of immune-modulatory molecules (IL11, TNFAIP6) in fibroblast cells [2]: specifically induced | mRNA expression of IL6 in human fibroblasts [2]: specifically induced | transcriptional program induced in human primary fibroblasts (ECM-related genes, reactive stroma markers) ([2]; ovary, bladder, colon fibroblasts): common 77-gene transcriptional program specifically induced | phosphorylation level of SMAD2/3 (SMAD2/3; TGFβ dose-dependent): increased

B1: IFNγ: recombinant IFNγ, a cytokine well established for inducing MHC-I expression (protein, UniProt P01579 24-161, looked up)
Interferon gamma: QDPYVKEAENLKKYFNAGHSDVADNGTLFLGILKNWKEESDRKIMQSQIVSFYFKLFKNFKDDQSIQKSVETIKEDMNVKFFNSNKKKRDDFEKLTNYSVTDLNVQRKAIHELIQVMAELSPAAKTGKRKRSQMLFRG
MHC class I protein expression on the tumor cell surface (OVCA-420; OVCA-420 (MHC-I high), 5 ng/mL IFNγ, 96 h): increased | MHC class I protein expression on the tumor cell surface (OAW42; OAW42 (MHC-I low), 5 ng/mL IFNγ): increased | MHC class I protein expression on the tumor cell surface (SK-OV-3; SK-OV-3 (MHC-I high), 5 ng/mL IFNγ): increased | MHC class I protein expression on the tumor cell surface (PA-1; PA-1 (MHC-I low), 5 ng/mL IFNγ): increased
